Values quoted from earlier work, collected in patent US20070197640A1, “Certain chemical entities, compositions, and methods” (Cytokinetics, Inc., priority 2005, published 2007).

test system: A549 cells; conditions: data provided by National Cancer Institute, Developmental Therapeutic Program

Compound | GI50 [nM]
COc1cccc2c1C(=O)c1c(O)c3c(c(O)c1C2=O)C[C@@](O)(C(=O)CO)C[C@@H]3O[C@H]1C[C@H](N)[C@H](O)[C@H](C)O1 [doxorubicin] | 63
O=c1[nH]cc(F)c(=O)[nH]1 [5-fluorouracil] | 1000
CC(=O)O[C@H]1C(=O)[C@@]2(C)[C@H]([C@H](OC(=O)c3ccccc3)[C@]3(O)C[C@H](OC(=O)[C@H](O)[C@@H](NC(=O)c4ccccc4)c4ccccc4)C(C)=C1C3(C)C)[C@]1(OC(C)=O)CO[C@@H]1C[C@@H]2O [paclitaxel] | 4
NC(=O)NO [hydroxyurea] | 500000
